Assay results reported in US20240043473A1, “NOOTROPIC PEPTIDES FOR TREATING LYSOSOMAL STORAGE DISEASES” (Phoenix Nest Inc., priority 2021, published 2024).
“Also recorded” adds a separate entry of the source. No end group written: not given here.

Columns and labels:
[1] = Effect on memory and learning after intranasal administration (earlier work); assay type: in vivo; conditions: 50 μg/kg BW intranasal; mice and rats
MIP1α = test: Expression of inflammatory cytokine in brain (real-time qPCR); assay type: in vivo, mouse; conditions: chronic daily 50 μg/kg BW; Hgsnat^P304L mice at 5 months; vs saline
Procedure: RNA was isolated from snap-frozen brain, kidney and liver tissues using the TRIzol reagent (Invitrogen) and reverse-transcribed using the iScript™ Reverse Transcription Supermix (Bio RAD #1708840) according to the manufacturer's protocol, qPCR was performed using a LightCycler® 96 Instrument (Roche) and SsoFast™ EvaGreen® Supermix with Low ROX (Bio RAD #1725211) according to the manufacturer's protocol. RLP32 mRNA was used as a reference control.
Starting from 3 weeks of age, WT C57B16 and homozygous Hgsnat^P304L male and female mice were randomly divided in treatment and control groups (6-13 mice/sex/genotype/treatment; see Table I). The control group was daily administered with saline (5 μL to each nostril), while for the treatment group, saline was supplemented with 125 µg of AVP6/mL, which would result in a dose of approximately 50 μg/kg BW/day. The peptide formulation was prepared once, aliquoted and kept frozen at −80° C. until use. At 4 months, all mice were studied by EPM, OF, YM and NOR behavioral tests. Administration of the drug or saline was continued through the days on which the assays were conducted. Then approximately at 5 months 4-5 mice in each group were sacrificed. […] When such signs were detected, the mice were studied by ERG and sacrificed within 1-2 days. […]

[2] = test system: primary hippocampal neurons of Hgsnat^P304L mice; test: Synaptic protein markers and BDNF in primary hippocampal neuronal cultures (immunocytochemistry); assay type: cell-based, mouse; conditions: 10 μM in culture media
Procedure: Model and Developmental time points: Primary hippocampal neuronal cultures established from E16 embryos of […] mice.
Method: The hippocampal neurons were cultured until DIV (Day In Vitro) 21 and 50% of media was changed every 3 days. AVP6 at a final concentration of 10 μM was added to the media when plating and during every media change. At DIV21 neurons were fixed and analysed by immunohistochemistry using markers of dendrites (MAP), axons (neurofilament protein, NF-H), and synaptic transmission (PSD95 and BDNF). Synaptic spine architecture and additional protein synaptic markers (Vglut/PSD95 and VAMP) will be studied.
Primary hippocampal neurons were cultured from the brains of embryo at gestational day 16 (E16). The hippocampi were isolated and treated with 2.5% trypsin solution (Sigma-Aldrich, T4674) for 15 min at 37° C. The cells were washed 3 times with Hank's Balanced Salt Solution (HBSS, Gibco, 14025-092) and mechanically dissociated by pipetting, using glass Pasteur pipettes with 3 different opening sizes (3, 2 and 1 mm). Then, they were counted with the viability dye trypan blue (ThermoFisher Scientific, 15250061), using a hemocytometer, and resuspended in Neurohasal media (Gibco, 21103-049) containing L-glutamine, B27, N2, penicillin and streptomycin. […]
Cultured mouse neurons at day in vitro (DIV) 21 or iPSC-derived neurons at D1V21 and DIV28 were fixed in 4% paraformaldehyde and 4% sucrose solution in PBS, pH 7.4, for 20 min. […] Coverslips were washed 3 times again in PBS and mounted on slides using ProLong Gold mounting medium, containing 4′,6-dianiidino-2-phenylindole (DAPI; Invitrogen, Cat #P36935), and analyzed by a Leica SP8-DSL or Leica TCS SPE confocal microscopes (×63 glycerol immersion objectives, N.A. 1.4). Images were processed with Leica Application Suite X (LAS-X) software or Photoshop 2021 (Adobe) and quantified using Fiji-ImageJ 1.50i software (National Institutes of Health, Bethesda, MD, USA). […] Soma or axon areas were defined by TUBB3, NEUN, or NF-M staining and, within this area, the appropriate markers were measured establishing a threshold. […]

[3] = DIV21, Hgsnat^P311L (P304L) neurons

AVP6: N-terminally acetylated Semax, a nootropic peptide having the amino acid sequence of MEHFPGP (SEQ ID NO:1) (Ac-MEHFPGP)
time to maximal effect on memory and learning after intranasal administration [1]: ≤ 24 h
expression levels of inflammatory cytokine MIP1α in the brain (MIP1α): reduced expression levels
Synapsin 1-positive puncta [2, 3]: increase in Synapsin 1-positive puncta; also recorded: rescues deficit of both proteins
number of BDNF-positive punctae [2, 3]: increase in the number of BDNF-positive punctae; also recorded: rescues deficit of both proteins
levels of VGLUT1+, PSD-95+, SYN1+ and BDNF+ puncta ([2]; Hgsnat^P304L neurons): rescues reduced levels of synaptic markers; also recorded: significantly increased
